Data on 17 compounds can be found in US12448388B2, “PRMT5 inhibitors and uses thereof” (Gilead Sciences, Inc., priority 2023, dated 2025).

Read-outs that look alike come from different tables or passages of the source.

Assay [1] has as its system HCT116 MTAP-deleted cell lines. In words: Cell viability assay (CellTiter-Glo, 7 days), HCT116 MTAP-deleted. The conditions noted are these: Homo sapiens, HCT-116, HCT116 MTAP-deleted, class symbols, read-out: CC50. Type of assay: cell-based. The gist of the method: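 PRMT5 inhibitors were serially diluted in DMSO and acoustically spotted as dose-response series into plates before cell seeding. Cells were grown with compound for 7 days at 37 °C, 5% CO2, 90% humidity, then viability was read by CellTiter-Glo luminescence and reported as CC50.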

The subject of assay [2] is Symmetric Di-methyl Arginine (SDMA) signal (PRMT5 inhibition) in HCT116 MTAP-deleted cells. In words: Symmetric di-methyl arginine image-based high content screen assay (SDMA assay), HCT116 MTAP-deleted. Type of assay: cell-based. The conditions noted are these: for EC50: Homo sapiens, HCT-116, HCT116 MTAP-deleted, class symbols. The method, then: Symmetric di-methyl arginine image-based high content screen assay (SDMA assay) was performed in HCT116 WT and HCT116 MTAP-deleted cell lines to measure Symmetric Di-methyl Arginine (SDMA) signal reduction after selective PRMT5 inhibition in the MTAP-deleted cells. Control compounds were analyzed in parallel each time for quality control.
Briefly, the same compound plates were generated as mentioned in the previous section of Cell viability assay on Day −1. On Day 0, 800 HCT WT or HCT116 MTAP-deleted cell were seeded in compound-containing 384 well plates (50 μl per well) in RPMI 1640 media supplemented with 10% heat inactivated fetal bovine serum, Glutamax and penicillin streptomycin using EL460 liquid dispenser 5 μl cassette (BioTek, part no. 7170011). After equilibrating the plate at room temperature, the cells were incubated for 3 days inside the sealed incubator set at 37° C. with 90% humidity and 5% C02.
On Day 3, the cells were fixed by adding 45 μl of 8% neutralized formalin solution to each well using EL460 liquid dispenser 5 μl cassette and the cells were incubated for 30 minutes at room temperature. The formalin solution was washed off with […] phosphate buffered saline (dPBS), the 0.1% Triton X-100 solution in dPBS was used to permeabilize the cells for 15 minutes at room temperature. The triton solution was aspirated, 50 μl of Odyssey Blocking buffer +0.05% Tween20 was added and the plate was incubated at room temperature for 30 minutes.
The blocking solution was removed, a 20 μl of SDMA antibody (Cell Signaling Technology, Cat no. 13222) diluted 1:500 in Odyssey Blocking buffer +0.05% Tween20 was added and the plate was incubated at 4° C. overnight. Next day, the primary SDME antibody solution was washed from each well three times with 0.05% Tween20 in dPBS (PBST).
A 30 μl of the secondary antibody, a Goat anti-Rabbit Alexa Fluor Plus 488 (Invitrogen, Cat no. PIA32731) was diluted 1:500 in Odyssey Blocking buffer +0.05% Tween20 and the plate was incubated for 1.5 hours in dark at room temperature. The secondary antibody solution was removed, 30 μl of 5 mg/ml DAPI solution diluted 1:2000 in dPBS was added and the plate was incubated for 30 minutes in dark at room temperature. The DAPI solution was aspirated and the wells were washed six times with dPBS.
The SDMA signal and DAPI signal per cell were counted using a Cellomics CX7 LZR instrument reading under 488 and 405 nm laser, respectively. The SDMA signal was quantified by mean average intensity per cell from Alexa Fluor Plus 488 after the cell was defined with DAPI. The EC50 values for each compound after 3 days of treatment were calculated using 4 parameter non-linear logistical curve fit.
For the SDMA assay i.e. EC50 shown in Table 3A: A: EC50≤1 nM, B: 1 nM<EC50≤5 nM, C: EC50>5 nM.

Setting [3] is: HCT116 WT vs HCT116 MTAP-deleted.
The mark [4] stands for this setting: HCT116 WT versus HCT116 MTAP-deleted.

With `Nc1nc2cc(F)c(C(=O)N3CCC[C@@H]4Oc5c(ccc(C(F)(F)F)c5F)[C@@H]43)cc2n2cncc12` [Ff-501, (4-amino-7-fluoroimidazo[1,5-a]quinoxalin-8-yl)((4aS,9bS)-6-fluoro-7-(trifluoromethyl)-3,4,4a,9b-tetrahydrobenzofuro[3,2-b]pyridin-1(2H)-yl)methanone], in assay [1] (cell viability assay), the CC50 is < 100 nM. This compound also showed an EC50 selectivity in assay [2] (setting [3]) of 115. Further, the EC50 in assay [2] is ≤ 1 nM.

Regarding `CN(C(=O)c1ccc2nc(N)c3cncn3c2c1)[C@@H]1COc2cc(C3CC3)ccc21` [Ff-548, (S)-4-amino-N-(6-cyclopropyl-2,3-dihydrobenzofuran-3-yl)-N-methylimidazo[1,5-a]quinoxaline-8-carboxamide], in assay [1] (cell viability assay), the CC50 fell in the range of 100 to 1000 nM. The same compound yielded an EC50 selectivity in assay [2] (setting [3]) of 102. The EC50 in assay [2] lay in the range of 1 to 5 nM.

As to `CN(C(=O)c1cc2c(cc1F)nc(N)c1cncn12)[C@@H]1COc2cc(-n3cnc(C(F)(F)F)n3)ccc21` [Ff-324, (S)-4-amino-7-fluoro-N-methyl-N-(6-(3-(trifluoromethyl)-1H-1,2,4-triazol-1-yl)-2,3-dihydrobenzofuran-3-yl)imidazo[1,5-a]quinoxaline-8-carboxamide], in assay [1] (cell viability), the 50% cytotoxic concentration (CC50) was < 100 nM. In assay [2] (setting [4]), this compound yielded an EC50 selectivity of 53. The compound also returned an EC50 in assay [2] of 1 to 5 nM.

Take `CN(C(=O)c1cc2c(cc1F)nc(N)c1cncn12)[C@@H]1COc2cc(-c3cnn(C(F)F)c3)ccc21` [Ff-213, (S)-4-amino-N-(6-(1-(difluoromethyl)-1H-pyrazol-4-yl)-2,3-dihydrobenzofuran-3-yl)-7-fluoro-N-methylimidazo[1,5-a]quinoxaline-8-carboxamide]: the half-maximal cytotoxic concentration (CC50) in assay [1] (cell viability) was < 100 nM. In addition, in assay [2] (setting [4]), the EC50 selectivity was determined as 153. This compound yielded an EC50 in assay [2] of 1 to 5 nM.

Consider `[2H]C1([2H])CC[C@@H]2Oc3cc(C(F)(F)F)ccc3[C@@H]2N1C(=O)c1cc2c(cn1)nc(N)c1c(C)ncn12` [Ff-644, (4-amino-3-methylimidazo[1,5-a]pyrido[3,4-e]pyrazin-8-yl)((4aS,9bS)-7-(trifluoromethyl)-3,4,4a,9b-tetrahydrobenzofuro[3,2-b]pyridin-1(2H)-yl-2,2-d2)methanone], for which the CC50 in assay [1] (cell viability assay) was < 100 nM. This compound also had an EC50 selectivity in assay [2] (setting [3]) of 92. Also, the half-maximal effective concentration (EC50) in assay [2] was ≤ 1 nM.

Consider `CN(C(=O)c1cc2c(cc1F)nc(N)c1cncn12)[C@@H]1COc2cc(N3CCOCC3)ccc21` [Ff-144, (S)-4-amino-7-fluoro-N-methyl-N-(6-morpholino-2,3-dihydrobenzofuran-3-yl)imidazo[1,5-a]quinoxaline-8-carboxamide], for which, in assay [1] (cell viability), the CC50 was < 100 nM. This compound returned an EC50 selectivity in assay [2] (setting [4]) of 157. In addition, the EC50 in assay [2] was 1 to 5 nM.

Consider `Nc1nc2cc(F)c(C(=O)N3CCC[C@@H]4Oc5cc(S(F)(F)(F)(F)F)ccc5[C@@H]43)cc2n2cncc12` [Ff-663, (4-amino-7-fluoroimidazo[1,5-a]quinoxalin-8-yl)((4aS,9bS)-7-(pentafluoro-16-sulfaneyl)-3,4,4a,9b-tetrahydrobenzofuro[3,2-b]pyridin-1(2H)-yl)methanone], for which the CC50 in assay [1] (cell viability assay) is < 100 nM. Further, in assay [2] (setting [3]), the EC50 selectivity is listed as 23. Further, in assay [2], the EC50 is ≤ 1 nM.

With `[2H]C1([2H])CC[C@@H]2Oc3cc(C(F)(F)F)ccc3[C@@H]2N1C(=O)c1ccc2nc(N)c3cncn3c2c1` [Ff-643, (4-aminoimidazo[1,5-a]quinoxalin-8-yl)((4aS,9bS)-7-(trifluoromethyl)-3,4,4a,9b-tetrahydrobenzofuro[3,2-b]pyridin-1(2H)-yl-2,2-d2)methanone], the CC50 in assay [1] (cell viability assay) was < 100 nM. The EC50 selectivity in assay [2] (setting [3]) worked out at 155. Besides, in assay [2], the EC50 is ≤ 1 nM.

Turning to `CN(Cc1ccc(-c2cnn(C(F)(F)F)c2)cc1F)C(=O)c1cc2c(cc1F)nc(N)c1cncn12` [Ff-24, 4-amino-7-fluoro-N-(2-fluoro-4-(1-(trifluoromethyl)-1H-pyrazol-4-yl)benzyl)-N-methylimidazo[1,5-a]quinoxaline-8-carboxamide], the CC50 in assay [1] (cell viability) lay within 100 to 1000 nM. The compound also had an EC50 selectivity in assay [2] (setting [4]) of 1985. In assay [2], the EC50 is 1 to 5 nM.

As for `CN(C(=O)c1cc2c(cc1Br)nc(N)c1cncn12)[C@@H]1COc2cc(C(F)(F)F)ccc21` [Fg-48, (S)-4-amino-7-bromo-N-methyl-N-(6-(trifluoromethyl)-2,3-dihydrobenzofuran-3-yl)imidazo[1,5-a]quinoxaline-8-carboxamide], the CC50 in assay [1] (cell viability assay) was < 100 nM. For the same compound, the EC50 selectivity in assay [2] (setting [3]) is 94. For the same compound, in assay [2], the EC50 was ≤ 1 nM.

Take `Nc1nc2cc(Br)c(C(=O)N3CCC[C@@H]4Oc5cc(C(F)(F)F)ccc5[C@@H]43)cc2n2cncc12` [Fg-50, (4-amino-7-bromoimidazo[1,5-a]quinoxalin-8-yl)((4aS,9bS)-7-(trifluoromethyl)-3,4,4a,9b-tetrahydrobenzofuro[3,2-b]pyridin-1(2H)-yl)methanone]: the CC50 in assay [1] (cell viability assay) is < 100 nM. In assay [2] (setting [3]), this compound displayed an EC50 selectivity of 47. In assay [2], the EC50 is ≤ 1 nM.

In the case of `CN(C(=O)c1cc2c(cc1F)nc(N)c1cncn12)[C@@H]1COc2cc(-c3cnn(C4CC4)c3)ccc21` [Ff-215, (S)-4-amino-N-(6-(1-cyclopropyl-1H-pyrazol-4-yl)-2,3-dihydrobenzofuran-3-yl)-7-fluoro-N-methylimidazo[1,5-a]quinoxaline-8-carboxamide], the CC50 in assay [1] (cell viability) is < 100 nM. The EC50 selectivity in assay [2] (setting [4]) worked out at 224. Further, the EC50 in assay [2] was 1 to 5 nM.

Consider `COC(C)(C)C#Cc1ccc2c(c1)OC[C@H]2N(C)C(=O)c1ccc2nc(N)c3cnc(C)n3c2c1` [Ff-18, (S)-4-amino-N-(6-(3-methoxy-3-methylbut-1-yn-1-yl)-2,3-dihydrobenzofuran-3-yl)-N,1-dimethylimidazo[1,5-a]quinoxaline-8-carboxamide], for which the CC50 in assay [1] (cell viability) lay within 100 to 1000 nM. Besides, the EC50 selectivity in assay [2] (setting [4]) was found to be 447. In addition, the EC50 in assay [2] was > 5 nM.

As for `CN(C(=O)c1cc2c(cc1F)nc(N)c1cncn12)[C@@H]1COc2cc(F)ccc21` [Ff-568, (S)-4-amino-N-(6-fluoro-2,3-dihydrobenzofuran-3-yl)-7-fluoro-N-methylimidazo[1,5-a]quinoxaline-8-carboxamide], in assay [1] (cell viability assay), the CC50 is 100 to 1000 nM. In assay [2] (setting [3]), this compound yielded an EC50 selectivity of 457. Moreover, in assay [2], the EC50 was > 5 nM.

With `Nc1nc2ccc(C(=O)N3CCC4(CC4)[C@@H]4Oc5cc(OC(F)(F)F)ccc5[C@@H]43)cc2n2cncc12` [Ff-615, (4-aminoimidazo[1,5-a]quinoxalin-8-yl)((4aS,9bS)-7-(trifluoromethoxy)-2,3,4a,9b-tetrahydro-1H-spiro[benzofuro[3,2-b]pyridine-4,1′-cyclopropan]-1-yl)methanone], the 50% cytotoxic concentration (CC50) in assay [1] (cell viability assay) is < 100 nM. In assay [2] (setting [3]), the EC50 selectivity is listed as 158. The EC50 in assay [2] is ≤ 1 nM.

For `C[C@H](c1ncccn1)N(Cc1ccc(C(F)(F)F)cn1)C(=O)c1cc2c(cc1F)nc(N)n1cncc21` [Fg-4, (R)-5-amino-8-fluoro-N-(1-(pyrimidin-2-yl)ethyl)-N-((5-(trifluoromethyl)pyridin-2-yl)methyl)imidazo[1,5-c]quinazoline-9-carboxamide], the CC50 in assay [1] (cell viability assay) is 100 to 1000 nM. Further, the EC50 selectivity in assay [2] (setting [3]) is 23. For the same compound, the EC50 in assay [2] was 1 to 5 nM.

Consider `CCN(C(=O)c1cc2c(cc1F)nc(N)c1cncn12)[C@@H]1COc2cc(C(F)(F)F)ccc21` [Ff-9, (S)-4-amino-N-ethyl-7-fluoro-N-(6-(trifluoromethyl)-2,3-dihydrobenzofuran-3-yl)imidazo[1,5-a]quinoxaline-8-carboxamide], for which the CC50 in assay [1] (cell viability) is < 100 nM. In addition, the EC50 selectivity in assay [2] (setting [4]) came to 106. Further, the concentration giving a half-maximal response (EC50) in assay [2] is ≤ 1 nM.
